A short description of series [1]: ORAC (Oxygen Radical Absorbance Capacity) assay for lipophilic antioxidants. As to conditions: samples 0.25 μM, 7% RMCD, fluorescein probe. Here is the method: (§1) An ORAC (Oxygen Radical Absorbance Capacity) assay was carried out using a Fluostar Optima plate reader (BMG Labtech, Durham, N.C.) equipped with an incubator and two injector pumps. A modified method for lipophilic antioxidants was followed, in which randomly methylated cyclodextrin (RMCD) was used as water solubility enhancer, as described by Huang et al, J. Agric. Food Chem., 2002, 50, 1815-1821. Trolox standards (6.25-50 μM) and samples (0.25 μM) were dissolved in acetone/water (1:1, v/v) containing 7% RMCD. Fluorescein and […] [2,2′-azobis(2-aminopropane)dihydrochloride] were used as the probe and radical generator, respectively. Twenty microliters of trolox standard or test compound solutions (7% RMCD used as a control) were added into each well of a 96-well black microplate, followed by addition of fluorescein. The plate was incubated at 37° C. for 15 min and then AAPH in buffer was injected into the wells. The conditions used were as follows: 0.3 s position delay, 8 s orbital shaking before each cycle with 4 mm width, 210 s cycle time, and 25 cycles. Fluorescence was measured at an excitation wavelength of 485 nm and emission of 520 nm. A standard curve was plotted and ORAC values for test compounds were obtained as mol of trolox equivalents (TE) per mol of test compound. (3b) Reducing Power The reducing power of EGCG and its derivatives (compounds 1a-1c) was determined according to Oyaizu (1986). One milliliter of test compounds (1 mM in 95% ethanol) was mixed with 2.5 ml of phosphate buffer solution (PBS, 0.2 M, pH 6.6) and 2.5 ml of a 1% solution of potassium ferricyanide, K3Fe(CN)6. The mixture was incubated at 50° C. for 20 min. […] The content was mixed well and the absorbance was recorded at 700 nm. Higher absorbance of the reaction mixture indicates greater reducing power. […] (3c) Metal Chelation The metal chelation capacity was measured following a procedure by Decker E. A. et al., J. Agric. […] The absorbance was measured afterwards at 562 nm. A blank without ferrozine was run for each compound, since the antioxidant-Fe^2+ complex gives a colour that might interfere with the absorbance reading. Metal chelation capacity was calculated using the following equation: % chelation=[1−(Abs.sample−Abs.blank)/Abs.control]×100 where, control was devoid of test compounds, while blank contained no ferrozine. (3d) DPPH Antioxidant activity of the lipophilic EGCG derivatives was ALSO evaluated as DPPH (1,1-diphenyl-2-picrylhydrazyl) radical scavenging capacity using EGCG as the reference. DPPH scavenging capacity of test compounds was determined by EPR (electron paramagnetic resonance) according to Madhujith and Shahidi (16) with slight modifications. […] The spectrum was recorded after 1 min. […]

A short description of series [2]: DPPH radical scavenging capacity by EPR. As to conditions: test compounds 25 μM in ethanol, EPR after 1 min. Here is the method: as §1
Background: The DPPH test is a chemical assay of radical scavenging.

Series [3] can be described thus: Incorporation into liposomes. Format: physicochemical. As to conditions: 500 μM in ethanol added to MLV, 20 min, 37° C. The protocol: Phosphotidylcholine (PC) (25 mg) was dissolved in a small amount of chloroform in a round bottom flask, followed by evaporation of the solvent with a rotary evaporator to obtain a thin layer film on the inner surface of the flask. Trace solvent was removed by nitrogen flush. An aqueous glucose solution (300 mM, 5 ml) was added to the flask, and the content was thoroughly vortexed and sonicated in an ultrosonicator, followed by a repeated freeze-thaw processing (4 times). The liposomal solution was diluted with 45 ml of phosphate buffer saline (PBS, 50 mM, pH7.4) and transferred into a centrifuge tube. The content was centrifuged at 13000 g for 5 min to remove the untrapped glucose. The sediment was re-suspended in 25 ml of PBS to obtain a final liposomal MLV. An aliquot (0.9 ml) of the above MLV was transferred to an Eppendorf tube containing 0.1 ml of test compounds (500 μM in ethanol) or ethanol blank. The content was mixed by vortexing and incubated for 20 min at 37° C. After incubation the mixture was centrifuged at 13000 g for 5 min, and the sediment was washed with 1 ml of 10% ethanol (in PBS), followed by a second centrifugation. The supernatants were combined and absorbance measured at 280 nm. A series of standard solutions in 10% ethanol at different concentrations was prepared for each test compound and their absorbance measured at 280 nm to construct a standard curve (absorbance VS. concentration). The un-incorporated test compounds in the supernatant were quantified using their corresponding standard curve. Percentage incorporation of each compound into the liposomes was calculated according to the following equation: % incorporation=100×(1−amount un-incorporated/amount added)=100×(1−C×2/50) where, C is the concentration of test compounds read from the standard curve. Discussion

Experimental findings from US9018248B2, “Fatty acid derivatives of catechins and methods of their use” (Genesis Group Inc., priority 2010, dated 2015) are described below.

Molecules are shown by their SMILES.

For `CCCCCCCCCCCCCCCCCC(=O)Oc1cc(C(=O)OC2Cc3c(O)cc(O)cc3OC2c2cc(OC(=O)CCCCCCCCCCCCCCCCC)c(O)c(OC(=O)CCCCCCCCCCCCCCCCC)c2)cc(OC(=O)CCCCCCCCCCCCCCCCC)c1O` (stereo not drawn) [Compound 1a, EGCG stearate], in series [1], the ORAC is given as 51.56 mol trolox eq./mol. The DPPH scavenging in series [2] is recorded as 5.85 mmol trolox eq./mol. Moreover, the “% incorporation into liposomes” value in series [3] is 91.19%.
In the same order, the values of `CCC=CCC=CCC=CCC=CCC=CCCCC(=O)Oc1cc(C(=O)OC2Cc3c(O)cc(O)cc3OC2c2cc(OC(=O)CCCC=CCC=CCC=CCC=CCC=CCC)c(O)c(OC(=O)CCCC=CCC=CCC=CCC=CCC=CCC)c2)cc(OC(=O)CCCC=CCC=CCC=CCC=CCC=CCC)c1O` (stereo not drawn) [Compound 1b] are 81.52 mol trolox eq./mol, 4.66 mmol trolox eq./mol and 71.81%.
In the same order, the values of `CCC=CCC=CCC=CCC=CCC=CCC=CCCC(=O)Oc1cc(C(=O)OC2Cc3c(O)cc(O)cc3OC2c2cc(OC(=O)CCC=CCC=CCC=CCC=CCC=CCC=CCC)c(O)c(OC(=O)CCC=CCC=CCC=CCC=CCC=CCC=CCC)c2)cc(OC(=O)CCC=CCC=CCC=CCC=CCC=CCC=CCC)c1O` (stereo not drawn) [Compound 1c] are 84.70 mol trolox eq./mol, 5.09 mmol trolox eq./mol and 80.91%.
Regarding `O=C(O[C@@H]1Cc2c(O)cc(O)cc2O[C@@H]1c1cc(O)c(O)c(O)c1)c1cc(O)c(O)c(O)c1` [EGCG, Epigallocatechin gallate, reference compound], the ORAC in series [1] was 14.97 mol trolox eq./mol. Also, in series [2], the DPPH scavenging came out at 3.13 mmol trolox eq./mol. Also, the “% incorporation into liposomes” value in series [3] was 65.17%.
